Experimental data as given in PMC10816808, “Enhancement of the Antitumor and Antimetastatic Effect of Topotecan and Normalization of Blood Counts in Mice with Lewis Carcinoma by Tdp1 Inhibitors—New Usnic Acid Derivatives” (International Journal of Molecular Sciences, 2024).

Columns and labels:
cells = conditions: cited from earlier work; for CC50: read-out: CC50 values (toxicity to cells)
[1] = system: mouse Lewis lung adenocarcinoma; design: method as in PMID 34370156; conditions: cited from earlier work
[2] = MTT cytotoxicity test, T98G; assay type: cell-based; conditions: human, T98G cells (glioblastoma), read-out: semitoxic concentration (CC50), T98G
From the text: (§1) Compounds 6 and 8 with a bromophenol residue in the enamine fragment have a weak or moderate effect on cell survival (Table 1 and Supplementary Figure S1).
(§2) Cytotoxicity of the compounds against human tumor cell lines: HeLa (cervical cancer), HCT-116 (colorectal cancer), A-549 (lung cancer), MCF-7 (breast cancer), T98G (glioblastoma), HepG2 (hepatocarcinoma), and nontumor cell lines: MRC-5 (lung fibroblasts) and HEK293A (human embryonic kidney) was examined using the MTT test. HCT-116 and MRC-5 cell lines were provided by the Cell Culture Bank of the State Research Center for Virology and Biotechnology Vector, Novosibirsk, Russia. A-549, MCF-7, and T98G cell lines were obtained from the Russian Cell Culture Collection (RCCC) Institute of Cytology RAS (St. Petersburg, Russia). HEK293A cells were purchased (ThermoFisher Scientific, Waltham, MA, USA).
(§3) The cell culture medium DMEM medium (Invitrogen, Carlsbad, CA, USA) contained 10% fetal bovine serum (FBS) (Invitrogen), penicillin (100 units/mL), and streptomycin (100 µg/mL). Cells were seeded into 96-well plates at 5000 cells per well and grown at 37 °C and 5% CO2 in a humid atmosphere. At 30–50% confluence, the tested compounds were added to the medium to a final DMSO content of 1%. Control wells contained 1% DMSO. To determine the cytotoxicity of Tdp1 inhibitors, the cells were treated with compounds with concentrations ranging from 1 to 100 µM for 72 h at 37 °C for 72 h. All measurements were repeated a minimum of twice.

[3] = MTT cytotoxicity test, MRC-5; assay type: cell-based; conditions: human, MRC-5 cells (lung fibroblasts, nontumor), read-out: semitoxic concentration (CC50), MRC-5
From the text: as §1, §2, §3

Tdp1 = target: T1, Tdp1 (Homo sapiens, UniProt Q9NUW8); test: Tdp1 inhibition, fluorescent oligonucleotide biosensor; assay type: biochemical; conditions: purified Tdp1 1.5 nM, 50 nM biosensor; read-out: Concentration of half-maximal inhibition of Tdp1 (IC50)
T1 construct: Purified Tdp1 (1.5 nM) triggered the reaction
T1 sequence (Q9NUW8 whole entry): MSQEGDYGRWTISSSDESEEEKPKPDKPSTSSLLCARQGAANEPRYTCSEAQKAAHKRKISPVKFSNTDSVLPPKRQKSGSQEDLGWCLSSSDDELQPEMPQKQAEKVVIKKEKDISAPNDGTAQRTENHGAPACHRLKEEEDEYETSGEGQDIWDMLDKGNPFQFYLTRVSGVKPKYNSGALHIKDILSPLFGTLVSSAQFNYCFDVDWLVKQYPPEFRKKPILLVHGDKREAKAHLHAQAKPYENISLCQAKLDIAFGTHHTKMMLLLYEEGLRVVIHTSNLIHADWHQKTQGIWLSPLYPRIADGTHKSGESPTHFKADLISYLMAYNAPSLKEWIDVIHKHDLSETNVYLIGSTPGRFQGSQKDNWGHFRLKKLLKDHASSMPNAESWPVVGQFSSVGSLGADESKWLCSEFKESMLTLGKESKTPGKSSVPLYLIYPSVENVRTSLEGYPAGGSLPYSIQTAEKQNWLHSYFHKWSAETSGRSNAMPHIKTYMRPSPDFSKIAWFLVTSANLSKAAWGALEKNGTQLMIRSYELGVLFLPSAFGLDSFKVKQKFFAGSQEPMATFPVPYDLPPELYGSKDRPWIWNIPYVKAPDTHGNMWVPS
From the text: The inhibitory properties of the compound on the purified Tdp1 was studied using a technique developed previously by our team. A 16-mer single-stranded oligonucleotide carrying a fluorophore at the 5′-end and a quencher at the 3′-end was used as a biosensor. When within the Förster radius, the quencher suppressed the fluorescence of the fluorophore. The quencher was removed by Tdp1, resulting in fluorescence emission. Usnic acid derivatives with a bromophenol residue in the enamine fragment (compounds 6 and 8) inhibit the enzyme with half-maximal inhibition concentrations (IC50) an order of magnitude worse than derivatives with a di-tert-butyl fragment (compounds 5 and 7).
An oligonucleotide 5′-[FAM] AAC GTC AGGGTC TTC C [BHQ1]-3′ synthesized in the laboratory Laboratory of Nucleic Acids Chemistry at the Institute of Chemical Biology and Fundamental Medicine (Novosibirsk, Russia) was used as a biosensor. Removal of the quencher (BHQ1) due to enzyme activity leads to increased fluorescence of FAM. The reaction was carried out at different concentrations of inhibitors (1.5% of DMSO, Sigma, St. Louis, MO, USA, in the control samples). The reaction mixtures contained Tdp1 buffer (50 mM Tris-HCl pH 8.0, 50 mM NaCl, and 7 mM β-mercaptoethanol), 50 nM biosensor, and an inhibitor being tested. Purified Tdp1 (1.5 nM) triggered the reaction.
The fluorescence was measured using POLARstar OPTIMA fluorimeter (BMG LABTECH, GmbH, Ortenberg, Germany). The values of IC50 were determined in minimum three independent experiments and were calculated using embedded software MARS Data Analysis 2.0 (BMG LABTECH, GmbH, Ortenberg, Germany).

[4] = MTT cytotoxicity test, MCF-7; assay type: cell-based; conditions: human, MCF-7 cells (breast cancer), read-out: semitoxic concentration (CC50), MCF-7
From the text: as §1, §2, §3

[5] = MTT cytotoxicity test, A-549; assay type: cell-based; conditions: human, A-549 cells (lung cancer), read-out: semitoxic concentration (CC50), A-549
From the text: as §1, §2, §3

[6] = MTT cytotoxicity test, HEK293A; assay type: cell-based; conditions: human, HEK293A cells (embryonic kidney, nontumor), read-out: semitoxic concentration (CC50), HEK293A
From the text: as §1, §2, §3

[7] = MTT cytotoxicity test, HCT-116; assay type: cell-based; conditions: human, HCT-116 cells (colorectal cancer), read-out: semitoxic concentration (CC50), HCT-116
From the text: as §1, §2, §3

[8] = MTT cytotoxicity test, HeLa; assay type: cell-based; conditions: human, HeLa cells (cervical cancer), read-out: semitoxic concentration (CC50), HeLa
From the text: as §1, §2, §3

[9] = system: various types of cultured cells; test: MTT test, panel of cultured cell lines; assay type: cell-based; conditions: at concentrations up to 100 μM; wide panel of tumor and non-cancerous cell lines
From the text: as §1, §2
as §3, with “To determine the cytotoxicity of Tdp1 inhibitors, the cells were treated with compounds with concentrations ranging from 1 to 100 µM for 72 h at 37 °C for 72 h. All measurements were repeated a minimum of twice.” left out

Compound	toxicity to the different cell types (in words) (cells)	enhancement of the antitumor effect of topotecan [1]	CC50 (cells)	CC50 at 72 h [2]	CC50 at 72 h [3]	IC50 (Tdp1)	CC50 at 72 h [4]	CC50 at 72 h [5]	CC50 at 72 h [6]	CC50 at 72 h [7]	CC50 at 72 h [8]	living cells (metabolic activity, MTT) [9]
CC(=O)c1c(O)c(C)c(O)c2c1OC1=CC(=O)/C(=C(\C)NCCCc3cc(C(C)(C)C)c(O)c(C(C)(C)C)c3)C(=O)[C@@]12C [Compound 1]	nontoxic	enhanced at least twofold	–	–	–	–	–	–	–	–	–	–
CC(=O)C1=C(O)C=C2Oc3c(-c4csc(N/N=C/c5ccc(Br)cc5)n4)c(O)c(C)c(O)c3[C@@]2(C)C1=O [Compound 4, reference compound]	–	–	1.5 µM	4 ± 1 µM	7 ± 0.7 µM	0.03 ± 0.01 µM	9.3 ± 2.2 µM	3.9 ± 0.2 µM	12 ± 5 µM	7 ± 0.6 µM	–	–
C/C(Nc1ccc(Br)cc1)=C1\C(=O)C=C2Oc3c(-c4csc(N/N=C/c5ccc(Br)cc5)n4)c(O)c(C)c(O)c3[C@@]2(C)C1=O [Compound 8, (4E)-4-{1-[(4-bromophenyl)amino]ethilidene}-10-{2-[(E)-2-[(4-bromophenyl)methylidene]hydrazin-1-yl]-1,3-thiazol-4-yl}-11,13-dihydroxy-2,12-dimethyl-8-oxatricyclo [7.4.0.02,7]trideca-1(13),6,9,11-tetraen-3,5-dione]	–	–	–	44 ± 13 µM	–	5 ± 1 µM	30 ± 20 µM	30 ± 10 µM	88 ± 26 µM	–	> 100 µM	–
CC(=O)C1=C(O)C=C2Oc3c(-c4csc(N/N=C/c5ccc(Br)s5)n4)c(O)c(C)c(O)c3[C@@]2(C)C1=O [Compound 3]	–	–	9 to 16 µM	–	–	–	–	–	–	–	–	–
CC(=O)c1c(O)c(C)c(O)c2c1OC1=CC(=O)/C(=C(\C)Nc3ccc(Br)cc3)C(=O)[C@@]12C [Compound 2]	nontoxic	–	–	–	–	–	–	–	–	–	–	–
C/C(NCCCc1cc(C(C)(C)C)c(O)c(C(C)(C)C)c1)=C1\C(=O)C=C2Oc3c(-c4csc(N/N=C/c5ccc(Br)s5)n4)c(O)c(C)c(O)c3[C@@]2(C)C1=O [Compound 5, (4E)-10-{2-[(E)-2-[(5-bromothiophenyl)methylidene]hydrazin-1-yl]-1,3-thiazole-4-yl}-4-(1-{[3-(3,5-di-tret-butyl-4-hydroxyhenyl)propyl]amino}ethylidene)-11,13-dihydroxy-2,12-dimethyl-8-oxatricyclo [7.4.0.02,7]trideca-1(13),6,9,11-tetraen-3,5-dione]	–	–	–	> 100 µM	> 100 µM	0.14 ± 0.02 µM	> 100 µM	> 100 µM	> 100 µM	> 100 µM	> 100 µM	more than 50%
